The term GI50 denotes the concentration giving 50% growth inhibition. Low values mean greater sensitivity of the cells, high ones lower sensitivity of the cells. In general, IC50 refers to the concentration at which inhibition is half-maximal. A high value points to weaker potency.

Converted amounts (≈) assume the structure as drawn.

Data on six compounds can be found in ChEMBL document CHEMBL1135557 (Bioorg Med Chem Lett, 2002).

Assay [1] addresses Tubulin alpha chain (Sus scrofa) (UniProt P02550). Briefly: Inhibitory binding percentage of compound towards colchicine site in tubulin using tubulin-[3H]colchicine as radioligand at a concentration of 100 uM.
For assay [2], the system named is PC-12. Briefly: In vitro cytotoxic activity (growth inhibition) of compound against PC-12 human cancer cell line was determined.
The subject of assay [3] is HCT-116. The assay is described as follows: In vitro cytotoxic activity (growth inhibition) of compound against HCT 116 cancer cell line was determined. The class given is functional. The note with it: Homo sapiens.
Assay [4] concerns the target Tubulin alpha chain (Sus scrofa) (UniProt P02550). The assay is described as follows: Inhibitory binding percentage of compound towards colchicine site in tubulin using tubulin-[3H]colchicine as radioligand at a concentration of 200 uM.
The target of assay [5] is Tubulin (Sus scrofa, UniProt P02554+P02550). The assay is described as follows: Concentration of compound required to inhibit tubulin polymerization (Microtubule assembly) was determined by the turbidity formation after 20 min of incubation. In kind it is functional.

Tubulin alpha chain (Sus scrofa), sequence (P02550 whole entry, looked up): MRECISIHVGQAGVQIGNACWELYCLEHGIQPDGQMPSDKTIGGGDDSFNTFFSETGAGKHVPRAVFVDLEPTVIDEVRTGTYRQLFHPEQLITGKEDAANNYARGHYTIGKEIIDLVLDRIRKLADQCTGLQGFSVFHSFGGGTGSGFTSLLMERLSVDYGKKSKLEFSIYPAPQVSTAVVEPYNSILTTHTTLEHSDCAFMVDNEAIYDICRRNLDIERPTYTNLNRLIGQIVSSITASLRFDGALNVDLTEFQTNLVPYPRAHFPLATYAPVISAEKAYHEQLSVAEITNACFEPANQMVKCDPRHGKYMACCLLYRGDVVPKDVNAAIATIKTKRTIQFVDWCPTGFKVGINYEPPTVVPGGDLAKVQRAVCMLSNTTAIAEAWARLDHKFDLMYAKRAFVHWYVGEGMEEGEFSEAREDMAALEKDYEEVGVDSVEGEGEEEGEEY

With `COc1cc2c(c(OC)c1OC)-c1ccc(OC)c(=O)cc1[C@@H](NC(C)=O)CC2` [COLCHICINE], the Inhibitory binding in assay [1] came to 98%; in assay [4], 100%. Moreover, the GI50 in assay [2] worked out at 0.0315 µg/mL (≈ 0.0789 µM); in assay [3], 0.0084 µg/mL (≈ 0.021 µM).
Take `Cc1c(/C=C/CN2CCN(c3cc(F)cc(F)c3)CC2)cnn1-c1ncccn1.Cl`: the Inhibitory binding in assay [1] was found to be 82%; in assay [4], 93%. In addition, the GI50 was 0.0625 µg/mL in assay [2] and 0.0701 µg/mL in assay [3]. The IC50 in assay [5] was determined as 9.08 µM.
As to `Cc1c(/C=C/CN2CCN(c3cc(F)cc(F)c3)CC2)cnn1-c1ccnc(N)n1.Cl`, the values for the GI50 in assay [2] and in assay [3] were 0.0199 µg/mL and 0.0329 µg/mL, respectively. This compound also registered a half-inhibitory concentration (IC50) in assay [5] of 3.72 µM.
Taken in the same sequence, the figures for `Cc1c(/C=C/CN2CCN(c3cccc(Cl)c3)CC2)cnn1-c1ncccn1.Cl` were 0.181 µg/mL, 0.254 µg/mL and 35.96 µM.
For the compound `CC[C@]1(O)C[C@@H]2CN(CCc3c([nH]c4ccccc34)[C@@](C(=O)OC)(c3cc4c(cc3OC)N(C)[C@H]3[C@@](O)(C(=O)OC)[C@H](OC(C)=O)[C@]5(CC)C=CCN6CC[C@]43[C@@H]65)C2)C1` [VINBLASTINE], the GI50 amounted to 0.0102 µg/mL (≈ 0.0126 µM) in assay [2] and 0.001 µg/mL (≈ 0.00123 µM) in assay [3].
As for `Cc1c(/C=C/CN2CCN(c3cc(F)cc(F)c3)CC2)cnn1-c1nccc(N)n1.Cl`, the figures for the GI50 in assay [2] and in assay [3] were 0.0216 µg/mL and 0.0208 µg/mL, respectively. Besides, the IC50 in assay [5] was 11.05 µM.
